Patent US20220079966A1, “HYALURONAN SYNTHESIS INHIBITION FOR TREATING AUTOIMMUNE, INFLAMMATORY, FIBROTIC, OR PROLIFERATIVE DISEASES OR DISORDERS” (The Board of Trustees of the Leland Stanford Junior …, priority 2018, published 2022)

Tests used:
B16F10 cells [1] = assay: HA production and HA staining by B16F10 melanoma cells (HA ELISA, HABP staining); type: cell-based, murine; conditions: for HA production (HA synthesis inhibition) by B16F10 cells: 48 hours of drug exposure, 30, 100, 300 μM, HA ELISA; for HA staining of B16F10 cells with HA binding protein (HABP): fluorescent staining
Description: To test this, murine melanoma cells (B16F10), a cell line known to produce abundant HA, were used. […] FIGS. 4D and 4E show HA production by B16F10 cells cultured for 48 hours in 4-MU (FIG. 1D) or 4-MUG (FIG. 1E). […] Data represent mean±SEM; *, p<0.05 by unpaired t test. Similar findings were seen as well in primary lymphocytes.
B16F10 cells were cultured in DMEM and were treated with different concentrations of 4-MU and 4-MUG (30, 100, 300 μM) for 24 and 48 hours. Cultured cells were lysed and analyzed for HA concentration determination using an HA ELISA. HA staining in B16F10 cells placed in 96 well plates were imaged using fluorescence microscopy. To measure 4-MU florescence intensity in B16F10 cells treated with 4-MU and 4-MUG, B16F10 cells were trypsinized and 4-MU fluorescence associated with the cells was analyzed by flow cytometry in the Pacific Blue channel using a BD™ LSRII flow cytometer. For permeabilization, after trypsinization, cells were incubated in methanol at −20° C. for 20 min and washed once before flow cytometric analysis.
(§1) Samples were thawed and assayed for HA levels using a modified HA ELISA as previously described (Nagy N., et al., J. Clin. Invest. 2015; 125(10):3928-3940). Each sample was analyzed in triplicate with a mean value obtained per sample. For cell normalization, LI-COR CellTag™ 700 Stain was used according to the manufactures protocol.

CTLL2 cells = assay: HA synthesis inhibition in CTLL2 lymphoma cells; type: cell-based; conditions: lymphoma cell line
Description: as §1

Min6 cells = assay: HA synthesis inhibition in Min6 insulinoma cells; type: cell-based; conditions: insulinoma cell line
Description: as §1

B16F10 cells [2] = assay: 4-MU fluorescence of treated B16F10 cells by flow cytometry, pre- and post-permeabilization; type: in vitro ADME, murine
Description: Fluorescent values of 4-MUG were normalized to the 4-MU fluorescence. Referring to FIG. 2 B, 4-MU or 4-MUG was added to PBS with 10% FCS and the increase of fluorescence signal using a fluorescence plate reader was monitored at intervals up to 72 hours. […] B16F10 cells were cultured in DMEM and were treated with different concentrations of 4-MU and 4-MUG (30, 100, 300 μM) for 24 and 48 hours. Cultured cells were lysed and analyzed for HA concentration determination using an HA ELISA. HA staining in B16F10 cells placed in 96 well plates were imaged using fluorescence microscopy. To measure 4-MU florescence intensity in B16F10 cells treated with 4-MU and 4-MUG, B16F10 cells were trypsinized and 4-MU fluorescence associated with the cells was analyzed by flow cytometry in the Pacific Blue channel using a BD™ LSRII flow cytometer. For permeabilization, after trypsinization, cells were incubated in methanol at −20° C. for 20 min and washed once before flow cytometric analysis.

[3] = test system: Foxp3+ regulatory T-cells; assay: Splenocyte regulatory T-cell analysis in wild type mice treated i.p. for 14 days; type: in vivo; conditions: 4-MU 0.5 mg i.p. or 4-MUG 1 mg i.p. daily for 14 days; for Foxp3+ amongst CD3+/CD4+ cells in splenocytes: flow cytometry
Description: The 4-MU (Alfa Aesar) was pressed into mouse chow (TestDiet, St. Louis, Mo.) and irradiated before shipment, as previously described (Nagy N., et al., Circulation. 2010; 122(22):2313-2322). This chow formulation delivers 250 mg/mouse/day, yielding a serum drug concentration of 640.3±17.2 nmol/L in mice, as measured by HPLC-MS. 4-MUG (ChemImpex, Wood Dale, Ill.) was distributed in the drinking water at a concentration of 2 mg/ml, delivering 10 mg/mouse/day, yielding a serum drug concentration of 357.1±72.6 ng/mL in mice, as measured by LC-MS/MS. Mice were initiated on 4-MU and 4-MUG at five, eight or twelve weeks of age, unless otherwise noted, and were maintained on this diet until they were euthanized, unless otherwise noted. For analysis of Foxp3+ regulatory T-cell numbers in naïve mice, mice were treated daily with 0.5 mg of 4-MU or 1.0 mg 4-MUG in 200 μl 0.08% carboxymethylcellulose in saline by intra-peritoneal injection.
Spleens were extracted from mice and cells were harvested by homogenization through a 70 μm cell strainer. Red blood cells were lysed using ACK buffer, after which the splenocyte suspensions were stained according to the protocol described above with the following fluorochrome-conjugated antibodies. V500-CD3 (500A2), BV785-CD4 (RM4-5) and A1488-Foxp3 (FJK-16s). Flow cytometry was performed on an LSRII and data analysis was done using FlowJo (Treestar).

[4] = HPLC of 4-MU and metabolites in serum of mice fed 4-MU chow for two weeks; type: in vivo; conditions: mice fed 4-MU for two weeks
Description: As a result of efficient glucuronidation of 4-MU in the liver and intestines by multiple UDP-glucuronosyltransferases (UGTs), the predominant form present systemically in mice on oral 4-MU chow is 4-MUG, as has been reported previously (Mulder G J, et al., Biochem Pharmacol. 1985; 34(8):1325-1329). For example, FIG. 1A illustrates molecular structures for 4-MU and its primary metabolites, 4-MUG and 4-MUS. […] N=3 animals per group. […] N=3 animals per group.

| Compound | HA production (HA synthesis inhibition) by B16F10 cells (B16F10 cells [1]) | HA staining of B16F10 cells with HA binding protein (HABP) (B16F10 cells [1]) | HA synthesis inhibition in CTLL2 cells (CTLL2 cells) | HA synthesis inhibition in Min6 cells (Min6 cells) | fluorescence of treated B16F10 cells upon permeabilization (B16F10 cells [2]) | CD4+ and CD3+ T-cell numbers in splenocytes [3] | Foxp3+ MFI amongst CD3+/CD4+ cells in splenocytes [3] | Foxp3+ amongst CD3+/CD4+ cells in splenocytes [3] | time after which treated B16F10 cells became fluorescent (B16F10 cells [2]; incubated 24, 48 or 72 hours, flow cytometry) [h] | median serum concentration of 4-MUG relative to parent compound 4-MU [4] |
| --- | --- | --- | --- | --- | --- | --- | --- | --- | --- | --- |
| Cc1cc(=O)oc2cc(O)ccc12 [4-MU, 4-methylumbelliferone] | concentration dependent inhibition of HA synthesis | reduced HA | HA synthesis inhibition | HA synthesis inhibition | lost upon permeabilization | not affected | increase in their expression of Foxp3 | increase of Foxp3+ regulatory T-cells |  |  |
| Cc1cc(=O)oc2cc(O[C@@H]3O[C@H](C(=O)O)[C@@H](O)[C@H](O)[C@H]3O)ccc12 [4-MUG, 4-methylumbelliferone-glucuronide] | concentration dependent inhibition of HA synthesis | reduced HA | inhibited HA synthesis | inhibited HA synthesis |  | not affected | increase in their expression of Foxp3 | increase of Foxp3+ regulatory T-cells | 48 to 72 | about 150 fold |
